Key:
[1] = test system: M. abscessus strain N0010; test: Checkerboard assay, MD3 combined with a second antibiotic (NTM); assay type: cell-based, Mycobacterium abscessus; details: aerobic
Procedure: (§1) The checkerboard method was performed as follows. MD3 and the second antibiotic were tested at four times (4×) their minimum inhibitory concentration (MIC) alone (see Table 3). Stock solutions of MD3 and the secondary antibiotics were prepared at 4× the final concentration (i.e., 16× the MIC; called the 4× stocks).
(§2) Bacterial cultures were prepared from frozen glycerol stocks stored at −80° C. by streaking on agar plates (see Table 4). Several well-isolated colonies were suspended in IX PBS, then diluted to 1×10^6 CFU/ml in liquid media. The cultures were diluted to 5×10^5 CFU/ml, when added to the antibiotic combinations in the checkerboard assay plate. Because colonies from strains N0010, N0046, and N0124 are difficult to suspend homogenously, they were first sub-cultured in 7H9 liquid media containing Middlebrook ADC supplement and 0.05% Tween-80, then incubated at 37° C. shaking for 3 days. This subculture was used to prepare the 1×10^6 CFU/ml culture.
(§3) To prepare the checkerboard assay plates, phosphate buffered saline (PBS) was added to wells BI through H8 of a 96-well plate. […]
(§4) The FICI was calculated for each well along the growth/no-growth border of the checkerboard assay plate. […]

[2] = test system: M. abscessus strain N0046; test: as above; assay type: cell-based, Mycobacterium abscessus subsp. bolletii; details: aerobic
Procedure: as §1, §2, §3, §4

M. chimaera N0124 = test: as above; assay type: cell-based, Mycobacterium chimaera; details: strain N0124, aerobic
Procedure: as §1, §2, §3, §4

M. massiliense N0130 = test: as above; assay type: cell-based, Mycobacterium massiliense; details: strain N0130, aerobic
Procedure: as §1, §2
(§5) To prepare the checkerboard assay plates, phosphate buffered saline (PBS) was added to wells BI through H8 of a 96-well plate. Next, 200 μl of the 4× second antibiotic stock was added to the empty wells in A1 through A8 of a 96-well plate, then serially diluted 1:1 down the plate using a multichannel pipette, stopping at row G. The final 100 μl from row G was discarded. […] At this step, all wells contain 4× the target concentration of the second antibiotic. Next, 100 μl of the 4× MD3 stock solution was added to wells A1 through H1 and serially diluted 1:1 across the plate to column 7 using a multichannel pipette. The final 100 μl in […] was discarded. […] After this step, all wells contain 2× the target concentrations for both MD3 and the second antibiotic. The wells in column 9 contain media alone, serving as media controls. The wells in column 10 contain media and bacteria, serving as growth controls. Finally, 100 μl of 5×10^5 CFU/ml bacterial culture was added to each well.
The FICI was calculated for each well along the growth/no-growth border of the checkerboard assay plate. If the FICI of any well was greater than 4, antagonism was reported; otherwise, the lowest FICI value was reported. FICI values of ≤0.5 are considered synergistic, values of 0.51 to 1 are additive, and values of greater than 1 to 4 are indifferent. The rationale for this method of analysis is that, if any ratio of MD3:antibiotic is synergistic, then that combination has the potential for synergy, even if other ratios are not synergistic. […] If an experiment was repeated twice and the same classification observed (e.g., synergy observed in both replicates), then the average FICI was reported for that drug combination. […]

[3] = test system: P. aeruginosa strain PAK (N0049); test: Checkerboard assay, MD3 combined with a second antibiotic; assay type: cell-based, Pseudomonas aeruginosa; details: for Lowest FICI, rep 1 / Lowest FICI, rep 2 / Lowest FICI, rep 3: antibiotic combined with MD3
Procedure: To quantify the combined effects of MD3 and a secondary antibiotic, a checkerboard assay was used, which is a two-dimensional, two-agent serial dilution that quantifies the effect of each drug alone and in combination. In patients with underlying pulmonary disease such as bronchiectasis, significant mucus in the lung results in bacterial infections that are primarily microaerobic (little oxygen) or anaerobic (no oxygen). Therefore, combinations of MD3 and six secondary antibiotics were evaluated under both aerobic and anaerobic conditions for a representative organism, Pseudomonas aeruginosa.
as §1
MD3 and secondary antibiotics were tested at 4× their minimum inhibitory concentration (MIC) alone. […] MD3 and antibiotics were tested across a 7-point range of 2-fold concentration, as detailed in Table 3.
as §2, §5
For experiments in which P. aeruginosa was grown under anaerobic conditions, 90 mM KNO3 was added to the CAMHB media, and the checkerboard assay plates were incubated in an anaerobic box containing anaerobic sachets.
The FICI was calculated for each well along the growth/no-growth border of the checkerboard assay plate. If the FICI of any well was greater than 4, antagonism was reported; otherwise, the lowest FICI value was reported. FICI values of ≤0.5 are considered synergistic, values of 0.51 to 1 are additive, and values of greater than 1 to 4 are indifferent. The rationale for this method of analysis is that, if any ratio of MD3:antibiotic is synergistic, then that combination has the potential for synergy, even if other ratios are not synergistic.

[4] = test system: Candida auris (Strain N0220); test: Checkerboard assay, MD3 combined with a secondary antifungal; assay type: cell-based; details: for Interaction (at 24 hours) / Lowest FICI (at 24 hours) / Interaction (at 48 hours) / Lowest FICI (at 48 hours): antifungal combined with MD3
Description: (§6) To quantify the combined effects of MD3 and a secondary antifungal, a checkerboard assay was used as described above in Example 1. The antibiotics tested in this study included voriconazole, a triazole antifungal that inhibits the growth of the fungi causing the infection; itraconazole, an azole antifungal that inhibits the growth of fungi; and amphotericin B, a polyene antifungal that binds to ergosterol in fungal cell membranes, developing holes in the membrane and allowing cell components to leak out, causing cell death.
(§7) The fungal species used in this study included Aspergillus fumigatus (strain N0219) and Candida auris (Strain N0220). The checkerboard method was performed as described above in Example 1. The effects of the antifungal combinations were classified according to the fractional inhibitory concentration index (FICI) as described above in Example 1 at time points of 24 hours and 48 hours.

S. aureus strain N0040 = test: Checkerboard assay, MD3 combined with a second antibiotic; assay type: cell-based, Staphylococcus aureus; details: aerobic
Procedure: as §1, §2, §5
The FICI was calculated for each well along the growth/no-growth border of the checkerboard assay plate. If the FICI of any well was greater than 4, antagonism was reported; otherwise, the lowest FICI value was reported. FICI values of ≤0.5 are considered synergistic, values of 0.51 to 1 are additive, and values of greater than 1 to 4 are indifferent. The rationale for this method of analysis is that, if any ratio of MD3:antibiotic is synergistic, then that combination has the potential for synergy, even if other ratios are not synergistic. […] If an experiment was repeated twice and the same classification observed (e.g., synergy observed in both replicates), then the average FICI was reported for that drug combination. If the results for two duplicates are discordant in their classification, a third experiment must be conducted and the average FICI from the triplicate experiments was used for final classification.

[5] = test system: Aspergillus fumigatus (strain N0219); test: Checkerboard assay, MD3 combined with a secondary antifungal; assay type: cell-based
Description: as §6, §7

planktonic P. aeruginosa = test: Minimum inhibitory concentration (MIC) of an agent alone; assay type: cell-based; details: Pseudomonas aeruginosa, strain PAK grown aerobically
Procedure: MD3 and secondary antibiotics were tested at 4× their minimum inhibitory concentration (MIC) alone. For example, the MICMD3 against P. aeruginosa strain PAK grown aerobically is 31.25 μg/ml, and the MICTOB is 3.125 μg/ml; thus, the highest concentrations tested in the checkerboard assay were 125 µg/ml MD3 and 12.5 μg/ml TOB. MD3 and antibiotics were tested across a 7-point range of 2-fold concentration, as detailed in Table 3.
as §5, with “Finally, 100 μl of 5×10^5 CFU/ml bacterial culture was added to each well.” left out

P. aeruginosa biofilms = test: Eradication of P. aeruginosa biofilms (MBEC assay); assay type: cell-based, Pseudomonas aeruginosa; details: aerobic and anaerobic biofilms; treated 18-24 hours
Procedure: The minimum biofilm eradication concentration (MBEC) of MD3 was determined for P. aeruginosa biofilms grown under aerobic and anaerobic conditions. The MBEC is defined as a 3-log reduction in biofilm-associated CFUs. Biofilms were generated using the MBEC Assay™ growth device (Innovotech; Edmonton, Alberta, Canada) in cation-adjusted Mueller-Hinton broth (CAMHB) at 37° C. for 24 hours and treated with MD3 or tobramycin for an additional 18-24 hours. Remaining biofilms were disrupted by sonication and plated to determine the surviving CFU/mL following a single treatment.

[6] = 24 hours, antifungal combined with MD3
[7] = 48 hours, antifungal combined with MD3

NCC[C@H](O)C(=O)N[C@@H]1C[C@H](N)[C@@H](O[C@H]2O[C@H](CN)[C@@H](O)[C@H](O)[C@H]2O)[C@H](O)[C@H]1O[C@H]1O[C@H](CO)[C@@H](O)[C@H](N)[C@H]1O [AMK, Amikacin]
Lowest FICI, rep 1 [1]: 0.56
Lowest FICI, rep 1 [2]: 0.56
Lowest FICI, rep 1 (M. chimaera N0124): 0.75
Lowest FICI, rep 1 (M. massiliense N0130): 0.56
Lowest FICI, rep 2 (M. massiliense N0130): 0.56

C[C@H]1[C@H](NC(=O)/C(=N\OC(C)(C)C(=O)O)c2csc(N)n2)C(=O)N1S(=O)(=O)O [ATM, Aztreonam]
Lowest FICI, rep 1 ([3]; Aerobic): 0.31
Lowest FICI, rep 2 ([3]; Aerobic): 0.31
Lowest FICI, rep 1 ([3]; Anaerobic): 0.56

C[C@@H]1[C@H](O)[C@@H](C)/C=C/C=C/C=C/C=C/C=C/C=C/C=C/[C@H](O[C@@H]2O[C@H](C)[C@@H](O)[C@H](N)[C@@H]2O)C[C@@H]2O[C@](O)(C[C@@H](O)C[C@@H](O)[C@H](O)CC[C@@H](O)C[C@@H](O)CC(=O)O[C@H]1C)C[C@H](O)[C@H]2C(=O)O [Amphotericin B, amphotericin B]
Interaction (at 24 hours) [4]: Additive
Lowest FICI (at 24 hours) [4]: 0.625
Interaction (at 48 hours) [4]: Additive
Lowest FICI (at 48 hours) [4]: 0.5625

CC(C)(O/N=C(\C(=O)N[C@@H]1C(=O)N2C(C(=O)[O-])=C(C[n+]3ccccc3)CS[C@H]12)c1csc(N)n1)C(=O)O [CAZ, ceftazidime]
Lowest FICI, rep 1 ([3]; Aerobic): 0.38
Lowest FICI, rep 2 ([3]; Aerobic): 0.31
Lowest FICI, rep 1 ([3]; Anaerobic): 0.50

O=C(O)c1cn(C2CC2)c2cc(N3CCNCC3)c(F)cc2c1=O [CIP, Ciprofloxacin]
Lowest FICI, rep 1 ([3]; Aerobic): 0.56
Lowest FICI, rep 2 ([3]; Aerobic): 0.31
Lowest FICI, rep 3 ([3]; Aerobic): 0.56
Lowest FICI, rep 1 ([3]; Anaerobic): 0.56

CC[C@H]1OC(=O)[C@H](C)[C@@H](O[C@H]2C[C@@](C)(OC)[C@@H](O)[C@H](C)O2)[C@H](C)[C@@H](O[C@@H]2O[C@H](C)C[C@H](N(C)C)[C@H]2O)[C@](C)(OC)C[C@@H](C)C(=O)[C@H](C)[C@@H](O)[C@]1(C)O [CLR, Clarithromycin]
Lowest FICI, rep 1 (M. chimaera N0124): 1.00
Lowest FICI, rep 1 (M. massiliense N0130): 0.56
Lowest FICI, rep 2 (M. massiliense N0130): 1.00

O=C([O-])CC(O)(CC(=O)[O-])C(=O)[O-].[Ga+3] [GaCi, Gallium citrate]
Lowest FICI, rep 1 ([3]; Aerobic): 0.38
Lowest FICI, rep 2 ([3]; Aerobic): 0.38
Lowest FICI, rep 3 ([3]; Aerobic): 0.25
Lowest FICI, rep 1 [1]: 0.56
Lowest FICI, rep 1 [2]: 0.56
Interaction of MD3 with the antibiotic (FICI classification) (S. aureus strain N0040): synergistic (FICI values of ≤0.5 are considered synergistic)
Lowest FICI, rep 1 (S. aureus strain N0040; combined with MD3): 0.25
Lowest FICI, rep 2 (S. aureus strain N0040; combined with MD3): 0.19

CCC(C)n1ncn(-c2ccc(N3CCN(c4ccc(OCC5COC(Cn6cncn6)(c6ccc(Cl)cc6Cl)O5)cc4)CC3)cc2)c1=O (stereo not shown) [Itraconazole, itraconazole]
Lowest FICI (at 24 hours) [5, 6]: 0.625
Lowest FICI (at 48 hours) [5, 7]: 0.5625

C[C@@H](O)[C@H]1C(=O)N2C(C(=O)O)=C(S[C@@H]3CN[C@H](C(=O)N(C)C)C3)[C@H](C)[C@H]12 [MER, Meropenem]
Lowest FICI, rep 1 ([3]; Aerobic): 0.53
Lowest FICI, rep 2 ([3]; Aerobic): 0.56
Lowest FICI, rep 1 ([3]; Anaerobic): 0.56

NC[C@H]1O[C@H](O[C@H]2[C@H](O)[C@@H](O[C@H]3O[C@H](CO)[C@@H](O)[C@H](N)[C@H]3O)[C@H](N)C[C@@H]2N)[C@H](N)C[C@@H]1O [TOB, Tobramycin]
Lowest FICI, rep 1 ([3]; Aerobic): 0.56
Lowest FICI, rep 2 ([3]; Aerobic): 0.63
Lowest FICI, rep 3 ([3]; Aerobic): 0.56
Lowest FICI, rep 1 ([3]; Anaerobic): 0.56
Interaction of MD3 with the antibiotic (FICI classification) (S. aureus strain N0040): indifferent (values of greater than 1 to 4 are indifferent)
Lowest FICI, rep 1 (S. aureus strain N0040; combined with MD3): 1.03
MIC (planktonic P. aeruginosa): 3.12 µg/mL
Biofilm eradication (MBEC, 3-log reduction in biofilm-associated CFUs) (P. aeruginosa biofilms): only effective against aerobic biofilms

C[C@@H](c1ncncc1F)[C@](O)(Cn1cncn1)c1ccc(F)cc1F [Voriconazole, voriconazole]
Interaction (at 24 hours) [5, 6]: Additive
Lowest FICI (at 24 hours) [5, 6]: 0.625
Interaction (at 48 hours) [5, 7]: Additive
Lowest FICI (at 48 hours) [5, 7]: 0.313
Interaction of MD3 with the antifungal (summary) ([5]; time point not separated): at least additive
Interaction (at 24 hours) [4]: Additive
Lowest FICI (at 24 hours) [4]: 0.375
Interaction (at 48 hours) [4]: Additive
Lowest FICI (at 48 hours) [4]: 0.5625
Interaction of MD3 with the antifungal (summary) ([4]; time point not separated): at least additive

Colistin [CST]
Lowest FICI, rep 1 ([3]; Aerobic): 0.56
Lowest FICI, rep 2 ([3]; Aerobic): 0.38
Lowest FICI, rep 1 ([3]; Anaerobic): 0.56

Gentamicin
Lowest FICI, rep 1 ([3]; Aerobic): 1.06
Interaction of MD3 with the antibiotic (FICI classification) ([3]; aerobic conditions): indifferent (values of greater than 1 to 4 are indifferent)
